# In ChEMBL document CHEMBL1147193, “New 5-substituted thiazolo[3,2-b][1,2,4]triazol-6-ones: synthesis and anticancer evaluation” (2007):
# Legend:
# Assay type in all cases: functional
# [1] = Growth inhibition of human MDA-MB-231/ATCC cells after 48 hrs by SRB protein assay; conditions: MDA-MB-231, 48 h
# [2] = system: SK-MEL-5; test: Growth inhibition of human SK-MEL-5 cells after 48 hrs by SRB protein assay; conditions: SK-MEL-5, 48 h
# [3] = system: M14; test: Growth inhibition of human M14 cells after 48 hrs by SRB protein assay; conditions: M14, 48 h
# [4] = Growth inhibition of human MALME 3M cells after 48 hrs by SRB protein assay
# [5] = system: ACHN; test: Growth inhibition of human ACHN cells after 48 hrs by SRB protein assay
# [6] = system: OVCAR-8; test: Growth inhibition of human OVCAR8 cells after 48 hrs by SRB protein assay; conditions: OVCAR-8, 48 h
# [7] = system: T47D; test: Growth inhibition of human T47D cells after 48 hrs by SRB protein assay
# [8] = system: A549; test: Growth inhibition of human A549/ATCC cells after 48 hrs by SRB protein assay; conditions: A549, 48 h
# [9] = system: NCI/ADR-RES; test: Growth inhibition of human NCI/ADR-RES cells after 48 hrs by SRB protein assay
# [10] = system: RPMI-8226; test: Growth inhibition of human RPMI8226 cells after 48 hrs by SRB protein assay; conditions: RPMI-8226, 48 h
# [11] = system: CCRF-CEM; test: Growth inhibition of human CCRF-CEM cells after 48 hrs by SRB protein assay
# [12] = system: U-251; test: Growth inhibition of human U251 cells after 48 hrs by SRB protein assay; conditions: U-251, 48 h
# [13] = system: HCT-116; test: Growth inhibition of human HCT116 cells after 48 hrs by SRB protein assay; conditions: HCT-116, 48 h
# [14] = system: MDA-MB-435; test: Growth inhibition of human MDA-MB-435 cells after 48 hrs by SRB protein assay; conditions: MDA-MB-435, 48 h
# [15] = system: UACC-257; test: Growth inhibition of human UACC257 cells after 48 hrs by SRB protein assay; conditions: UACC-257, 48 h
# [16] = system: NCI-H460; test: Growth inhibition of human NCI-H460 cells after 48 hrs by SRB protein assay; conditions: NCI-H460, 48 h
# [17] = system: KM12; test: Growth inhibition of human KM12 cells after 48 hrs by SRB protein assay; conditions: KM12, 48 h
# [18] = system: UO-31; test: Growth inhibition of human UO31 cells after 48 hrs by SRB protein assay; conditions: UO-31, 48 h
# [19] = system: SW-620; test: Growth inhibition of human SW620 cells after 48 hrs by SRB protein assay; conditions: SW-620, 48 h
# [20] = system: COLO 205; test: Growth inhibition of human COLO205 cells after 48 hrs by SRB protein assay; conditions: COLO 205, 48 h
# [21] = system: OVCAR-3; test: Growth inhibition of human OVCAR-3 cells after 48 hrs by SRB protein assay; conditions: OVCAR-3, 48 h
# [22] = system: SF-295; test: Growth inhibition of human SF295 cells after 48 hrs by SRB protein assay; conditions: SF-295, 48 h
# [23] = system: NCI-H322M; test: Growth inhibition of human NCI-H322M cells after 48 hrs by SRB protein assay
# [24] = system: HT-29; test: Growth inhibition of human HT29 cells after 48 hrs by SRB protein assay; conditions: HT-29, 48 h
# [25] = system: SK-MEL-2; test: Growth inhibition of human SK-MEL-2 cells after 48 hrs by SRB protein assay; conditions: SK-MEL-2, 48 h
# [26] = system: MCF7; test: Growth inhibition of human MCF7 cells after 48 hrs by SRB protein assay; conditions: MCF7, 48 h
# [27] = system: NCI-H460; test: Anticancer activity against human NCI-H460 cells assessed as growth of cells at 100 uM relative to untreated cells
# [28] = system: TK-10; test: Growth inhibition of human TK10 cells after 48 hrs by SRB protein assay; conditions: TK-10, 48 h
# [29] = system: NCI-H522; test: Growth inhibition of human NCI-H522 cells after 48 hrs by SRB protein assay; conditions: NCI-H522, 48 h
# [30] = system: HOP-62; test: Growth inhibition of human HOP62 cells after 48 hrs by SRB protein assay; conditions: HOP-62, 48 h
# [31] = system: SN12C; test: Growth inhibition of human SN12C cells after 48 hrs by SRB protein assay
# [32] = system: PC-3; test: Growth inhibition of human PC3 cells after 48 hrs by SRB protein assay; conditions: PC-3, 48 h
# [33] = system: OVCAR-4; test: Growth inhibition of human OVCAR4 cells after 48 hrs by SRB protein assay; conditions: OVCAR-4, 48 h
# [34] = system: SK-MEL-28; test: Growth inhibition of human SK-MEL-28 cells after 48 hrs by SRB protein assay; conditions: SK-MEL-28, 48 h
# [35] = system: BT-549; test: Growth inhibition of human BT549 cells after 48 hrs by SRB protein assay; conditions: BT-549, 48 h
# [36] = system: MCF7; test: Anticancer activity against human MCF7 cells assessed as growth of cells at 100 uM relative to untreated cells
# [37] = system: Hs-578T; test: Growth inhibition of human HS578T cells after 48 hrs by SRB protein assay
smiles,measurement,setting,value
O=C(CC1Sc2ncnn2C1=O)Nc1ccccc1 (configuration not stated),GI50,[1],19.1 µM
same,TGI,[1]; read-out: Log TGI (converted),38.9 µM
same,GI50,[2],22.9 µM
same,TGI,[2]; read-out: Log TGI (converted),47.9 µM
same,GI50,[3],21.9 µM
same,TGI,[3]; read-out: Log TGI (converted),45.7 µM
same,GI50,[4],19.1 µM
same,TGI,[4]; read-out: Log TGI (converted),44.7 µM
same,GI50,[5],21.9 µM
same,TGI,[5]; read-out: Log TGI (converted),41.7 µM
same,GI50,[6],25.7 µM
same,TGI,[6]; read-out: Log TGI (converted),60.3 µM
same,GI50,[7],39.8 µM
same,TGI,[7]; read-out: Log TGI (converted),> 100 µM
same,GI50,[8],> 100 µM
same,TGI,[8]; read-out: Log TGI (converted),> 100 µM
same,GI50,[9],63.1 µM
same,TGI,[9]; read-out: Log TGI (converted),> 100 µM
same,GI50,[10],20.9 µM
same,TGI,[10]; read-out: Log TGI (converted),64.6 µM
same,GI50,[11],33.9 µM
same,TGI,[11]; read-out: Log TGI (converted),100 µM
same,GI50,[12],> 100 µM
same,TGI,[12]; read-out: Log TGI (converted),> 100 µM
same,GI50,[13],32.4 µM
same,TGI,[13]; read-out: Log TGI (converted),> 100 µM
same,GI50,[14],41.7 µM
same,TGI,[14]; read-out: Log TGI (converted),> 100 µM
same,GI50,[15],40.7 µM
same,TGI,[15]; read-out: Log TGI (converted),> 100 µM
same,GI50,[16],35.5 µM
same,TGI,[16]; read-out: Log TGI (converted),> 100 µM
same,GI50,[17],> 100 µM
same,TGI,[17]; read-out: Log TGI (converted),> 100 µM
same,GI50,[18],25.1 µM
same,TGI,[18]; read-out: Log TGI (converted),57.5 µM
same,GI50,[19],3.24 µM
same,TGI,[19]; read-out: Log TGI (converted),44.7 µM
same,GI50,[20],25.7 µM
same,TGI,[20]; read-out: Log TGI (converted),79.4 µM
same,GI50,[21],34.7 µM
same,TGI,[21]; read-out: Log TGI (converted),> 100 µM
same,GI50,[22],> 100 µM
same,TGI,[22]; read-out: Log TGI (converted),> 100 µM
same,GI50,[23],> 100 µM
same,TGI,[23]; read-out: Log TGI (converted),> 100 µM
same,GI50,[24],> 100 µM
same,TGI,[24]; read-out: Log TGI (converted),> 100 µM
same,GI50,[25],21.9 µM
same,TGI,[25]; read-out: Log TGI (converted),53.7 µM
same,GI50,[26],36.3 µM
same,TGI,[26]; read-out: Log TGI (converted),> 100 µM
same,Activity,[27],0%
same,GI50,[28],19.1 µM
same,TGI,[28]; read-out: Log TGI (converted),39.8 µM
same,GI50,[29],21.9 µM
same,TGI,[29]; read-out: Log TGI (converted),42.7 µM
same,GI50,[30],> 100 µM
same,TGI,[30]; read-out: Log TGI (converted),> 100 µM
same,GI50,[31],27.5 µM
same,TGI,[31]; read-out: Log TGI (converted),67.6 µM
same,GI50,[32],72.4 µM
same,TGI,[32]; read-out: Log TGI (converted),> 100 µM
same,GI50,[33],> 100 µM
same,TGI,[33]; read-out: Log TGI (converted),> 100 µM
same,GI50,[34],> 100 µM
same,TGI,[34]; read-out: Log TGI (converted),> 100 µM
same,GI50,[35],0.339 µM
same,TGI,[35]; read-out: Log TGI (converted),1 µM
same,Activity,[36],0%
same,GI50,[37],12.3 µM
same,TGI,[37]; read-out: Log TGI (converted),45.7 µM
